From ChEMBL document CHEMBL4808170, “Structure-Based Design of Potent and Orally Active Isoindolinone Inhibitors of MDM2-p53 Protein-Protein Interaction” (J Med Chem, 2021) come the findings set out here.

Usually IC50 stands for the concentration that inhibits the measured activity by half. Read a low IC50 as greater potency. A word on the GI50: it is the concentration that inhibits growth by half. High values mean less potent growth inhibition, low ones more potent growth inhibition. As usually defined, the chromatographic logD is lipophilicity estimated from chromatographic retention. A higher chromatographic logD goes with a more lipophilic compound. As usually defined, the half-life is how long it takes for the measured level to halve. As usually defined, the bioavailability is the share of a dose that reaches the circulation, judged against a reference dose that is usually intravenous. A lower bioavailability goes with poor availability. The term CL/F denotes clearance divided by bioavailability, as obtained after extravascular dosing. The clearance is the rate of elimination divided by the concentration. Low values mean a low capacity for elimination, high ones a high capacity for elimination. As a reminder, the T/C is the result in the treated group divided by that in the control group, in per cent. The inhibition is the drop in the measured response relative to a control, in per cent.

Data set [1] in a line: Inhibition of MDM2/IP3 (unknown origin) protein-protein interaction expressed using TNT T7 coupled reticulocyte lysate system incubated for 90 mins by ELISA.
The subject of data set [2] is SJSA-1. Nature of the data set: Antiproliferative activity against human SJSA-1 cells expressing wild type TP53 incubated for 72 hrs by Sulforhodamine B assay. Format: functional. (In general: Sulforhodamine B stains cellular protein and so reports cell mass.)
A short description of data set [3]: Lipophilicity, logD of compound at pH 7.4 by Chromatography. Format: physicochemical. The note with it: buffer.
The nature of data set [4]: Antiproliferative activity against human SN40R2 cells derivative of SJSA-1 cells expressing mutant TP53 at 50 uM incubated for 72 hrs by Sulforhodamine B assay. Format: functional.
Data set [5] can be described thus: Metabolic stability in CD1 mouse liver microsomes assessed as half life at 1 uM. Format: ADME, Microsome.
Data set [6] in a line: Oral bioavailability in BALB/c mouse at 5 mg/kg by HPLC analysis. Type of data set: ADME, organism-based. The note with it: in vivo.
A short description of data set [7]: Drug metabolism in mouse liver microsomes assessed as retention time of metabolite aryl-iminium ion at 10 uM by LC-MS analysis. Format: ADME, Microsome. In general terms: Liver microsomes are vesicles of endoplasmic reticulum, rich in cytochrome P450 enzymes.
The nature of data set [8]: Plasma protein binding in BALB/c mouse incubated for 48 hrs. Type of data set: ADME, cell-free. The following applies: read-out: PPB (converted).
Data set [9] in a line: Metabolic stability in human liver microsomes assessed as half life at 1 uM. Type of data set: ADME, Microsome.
Data set [10] can be described thus: Plasma clearance in BALB/c mouse at 5 mg/kg, po by HPLC analysis. Type of data set: ADME, organism-based.
Data set [11] is described as follows: Drug metabolism in mouse liver microsomes assessed as retention time of compound at 10 uM by LC-MS analysis. Format: ADME, Microsome.
Data set [12] can be described thus: Drug metabolism in mouse liver microsomes assessed as metabolite rac-1-(((2-(4-chlorobenzyl)-1-(4-chlorophenyl)-5-(2-hydroxypropan-2-yl)-3-oxoisoindolin-1-yl)oxy)methyl)cyclopropane-1-carboxylic acid formation at 10 uM measured up to 40 mins by LC-MS analysis. Type of data set: ADME, Microsome.
Data set [13] in a line: Plasma protein binding in human incubated for 48 hrs. Type of data set: ADME, cell-free. The note with it: read-out: PPB (converted).
Data set [14] deals with T1, CYP3A4 (Homo sapiens, UniProt P08684). The data set is described as follows: Inhibition of human CYP3A4 expressed in human supersomes assessed as half life in presence of NADPH at 1 uM using midazolam as substrate measured after 40 mins. Type of data set: ADME. The note with it: supersomes expressing human CYP3A4, probe midazolam.
T1 sequence (P08684 whole entry): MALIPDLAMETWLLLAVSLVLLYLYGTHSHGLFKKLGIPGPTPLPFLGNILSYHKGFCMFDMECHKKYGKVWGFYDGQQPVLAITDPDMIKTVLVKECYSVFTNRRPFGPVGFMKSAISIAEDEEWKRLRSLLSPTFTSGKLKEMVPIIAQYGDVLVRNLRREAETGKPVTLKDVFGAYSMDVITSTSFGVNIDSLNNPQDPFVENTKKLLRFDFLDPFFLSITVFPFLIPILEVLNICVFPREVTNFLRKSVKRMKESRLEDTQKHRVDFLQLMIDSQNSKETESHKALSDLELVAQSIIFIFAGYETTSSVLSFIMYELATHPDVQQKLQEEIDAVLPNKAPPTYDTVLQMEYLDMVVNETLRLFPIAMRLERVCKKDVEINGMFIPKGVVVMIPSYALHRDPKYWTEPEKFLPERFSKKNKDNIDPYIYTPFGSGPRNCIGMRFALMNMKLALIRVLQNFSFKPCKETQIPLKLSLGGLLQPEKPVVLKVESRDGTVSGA
Data set [15] in a line: Antiproliferative activity against human SN40R2 cells derivative of SJSA-1 cells expressing mutant TP53 incubated for 72 hrs by Sulforhodamine B assay. Type of data set: functional.
A short description of data set [16]: Drug metabolism in mouse liver microsomes assessed as retention time of metabolite rac-1-(((2-(4-chlorobenzyl)-1-(4-chlorophenyl)-5-(2-hydroxypropan-2-yl)-3-oxoisoindolin-1-yl)oxy)methyl)cyclopropane-1-carboxylic acid at 10 uM by LC-MS analysis. Type of data set: ADME, Microsome.
Data set [17] is described as follows: Antiproliferative activity against human SN40R2 cells derivative of SJSA-1 cells expressing mutant TP53 at 30 uM incubated for 72 hrs by Sulforhodamine B assay. Type of data set: functional.
Data set [18] in a line: In vivo clearance in nonhuman primate at 0.2 mg/kg, iv by HPLC analysis. Type of data set: ADME, organism-based. The following applies: primates.
A short description of data set [19]: Toxicity in CD-1 mouse xenografted human SJSA-1 cells assessed as adverse effect at 50 mg/kg, po single dose for 7 days relative to control. The note with it: in vivo, 168 h, time 7 day. Format: organism-based. In general terms: A xenograft is tissue or cells of one species grown in another, often human tumour cells in immunodeficient mice.
The test system of data set [20] is SJSA-1. The data set is described as follows: Antitumor activity in human SJSA-1 cells […] CD-1 mouse xenograft model assessed as inhibition of tumor growth at 50 mg/kg, po single dose for 7 days relative to control. Type of data set: functional. The note with it: time 7 day.
Data set [21] addresses T1, CYP3A4. The data set is described as follows: Inhibition of CYP3A4 (unknown origin) using midazolam as substrate in presence of NADPH at 8 uM. Format: ADME. The note with it: probe midazolam.
For data set [22], the system named is SJSA-1. The data set is described as follows: Antitumor activity in human SJSA-1 cells […] CD-1 mouse xenograft model assessed as increase in p53 expression in tumor at 50 mg/kg, po single dose measured after 3 hrs by MSD analysis relative to control. Format: functional.
A short description of data set [23]: Toxicity in CD-1 mouse xenografted human SJSA-1 cells assessed as change in body weight at 50 mg/kg, po single dose for 7 days relative to control. The note with it: in vivo, 168 h, time 7 day. Format: organism-based.
A short description of data set [24]: Oral bioavailability in nonhuman primate at 5 mg/kg by HPLC analysis. Format: ADME, organism-based. The following applies: primates, in vivo.
In data set [25] the test system is SJSA-1. The data set is described as follows: Antitumor activity in human SJSA-1 cells […] CD-1 mouse xenograft model assessed as increase in p53 expression in tumor at 50 mg/kg, po single dose measured after 6 hrs by MSD analysis relative to control. Format: functional.

As to `[2H]C([2H])(O)C1(C([2H])([2H])O[C@]2(c3ccc(Cl)cc3)c3c(F)cc(C(C)(C)O)cc3C(=O)N2Cc2ncc(C#N)cn2)CC1`, 3.1 nM corresponded to half-maximal inhibition in data set [1] (IC50). Also, halving of growth in [2] (GI50) required 260 nM. Moreover, the chromatographic logD in [3] was determined as 3.9. The same molecule gave an Activity in data set [4] of 19%.

In the case of `CC(C)(O)c1ccc2c(c1)C(=O)N(Cc1ccc(Cl)cc1)[C@@]2(OCC1(CO)CC1)c1ccc(Cl)cc1`, the figures for the half-life at 1 µM in [5], in data set [9] and in [14] were below 5 min, 9.5 min and below 5 min, respectively. This molecule also registered a bioavailability in [6] of 6.5%. In addition, the Retention_time in data set [7] is on record as 2.13 min; in [11] it was 2.3 min; in [16], 2.12 min. Also, the fraction unbound at 48 h in data set [8] was 0.001; in data set [13], 0.002. The molecule further came in with an apparent clearance (CL/F) in data set [10] of 25 mL/min/kg. Moreover, the Drug metabolism result in [12] is reported as “Metabolite_Detected”. This molecule also yielded a GI50 in data set [15] of 18000 nM.

For `[2H]C([2H])(O)C1(C([2H])([2H])O[C@]2(c3ccc(Cl)cc3)c3c(F)cc(C(C)(C)O)cc3C(=O)N2Cc2ccc(C#N)cn2)CC1`, the Activity in data set [17] is recorded as 20%; in data set [19], “Non-Toxic”; in data set [23], “Non-Toxic”. Besides, the half-life at 1 µM was determined as 27 min in data set [5], 52 min in data set [9] and 14 min in [14]. The bioavailability in data set [6] is 46%; in [24], 31%. In data set [18], the clearance stood at 11 mL/min/kg. For the same molecule, the T/C in [20] was determined as 21%. Further, the inhibition at 8 µM in data set [21] stood at 46%. For the same molecule, the 50% inhibitory concentration (IC50) in data set [1] worked out at 3.8 nM. In addition, the figures for the fraction unbound at 48 h in [8] and in [13] were 0.094 and 0.086, respectively. The GI50 in data set [2] came out at 200 nM. Moreover, the apparent clearance (CL/F) in [10] is 11 mL/min/kg. The molecule also showed a chromatographic logD in data set [3] of 3.8. Moreover, the “fold change (FC)” value in data set [22] came to 3.7; in data set [25], 10.3.
